Measurements reported in the supplement of paper PMC10307832.

Assays:
Assay in all cases: relative viability (nuclei count vs DMSO), 5 days (fraction); higher = more cells survive
Afatinib + Navitoclax = compound: CN(C)C/C=C/C(=O)Nc1cc2c(Nc3ccc(F)c(Cl)c3)ncnc2cc1O[C@H]1CCOC1 [Afatinib] + CC1(C)CCC(c2ccc(Cl)cc2)=C(CN2CCN(c3ccc(C(=O)NS(=O)(=O)c4ccc(N[C@H](CCN5CCOCC5)CSc5ccccc5)c(S(=O)(=O)C(F)(F)F)c4)cc3)CC2)C1 [Navitoclax] (partner 0.5 µM)
How it was run: (§1)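 Relative viability divides the nuclei count in treated wells by that in vehicle wells. Lung cancer cell lines were seeded in 1536-well plates, dosed by pin tool the next day, and fixed and stained after 5 days in one step with final 0.05% Triton X-100, 1% formaldehyde and 1 ug/ml Hoechst. Dosing was a single drug or a fixed anchor-drug dose plus five library-drug doses (not always all listed) in √10 steps, and values are medians of duplicate plates imaged at 4×.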

Afatinib + Luminespib = compound: CN(C)C/C=C/C(=O)Nc1cc2c(Nc3ccc(F)c(Cl)c3)ncnc2cc1O[C@H]1CCOC1 [Afatinib] + CCNC(=O)c1noc(-c2cc(C(C)C)c(O)cc2O)c1-c1ccc(CN2CCOCC2)cc1 [Luminespib] (partner 0.01 µM)
How it was run: as §1

Afatinib + Foretinib = compound: CN(C)C/C=C/C(=O)Nc1cc2c(Nc3ccc(F)c(Cl)c3)ncnc2cc1O[C@H]1CCOC1 [Afatinib] + COc1cc2c(Oc3ccc(NC(=O)C4(C(=O)Nc5ccc(F)cc5)CC4)cc3F)ccnc2cc1OCCCN1CCOCC1 [Foretinib] (partner 0.25 µM)
How it was run: as §1

Afatinib + Linsitinib = compound: CN(C)C/C=C/C(=O)Nc1cc2c(Nc3ccc(F)c(Cl)c3)ncnc2cc1O[C@H]1CCOC1 [Afatinib] + C[C@]1(O)C[C@@H](c2nc(-c3ccc4ccc(-c5ccccc5)nc4c3)c3c(N)nccn32)C1 [Linsitinib] (partner 1 µM)
How it was run: as §1

| Cell Line | relative viability (Afatinib + Navitoclax; first compound 0.005 µM) | relative viability (Afatinib + Navitoclax; first compound 0.01581 µM) | relative viability (Afatinib + Navitoclax; first compound 0.05 µM) | relative viability (Afatinib + Navitoclax; first compound 0.1581 µM) | relative viability (Afatinib + Navitoclax; first compound 0.5 µM) | relative viability (Afatinib + Luminespib; first compound 0.005 µM) | relative viability (Afatinib + Luminespib; first compound 0.01581 µM) | relative viability (Afatinib + Luminespib; first compound 0.05 µM) | relative viability (Afatinib + Luminespib; first compound 0.1581 µM) | relative viability (Afatinib + Luminespib; first compound 0.5 µM) | relative viability (Afatinib + Foretinib; first compound 0.005 µM) | relative viability (Afatinib + Foretinib; first compound 0.01581 µM) | relative viability (Afatinib + Foretinib; first compound 0.05 µM) | relative viability (Afatinib + Foretinib; first compound 0.1581 µM) | relative viability (Afatinib + Foretinib; first compound 0.5 µM) | relative viability (Afatinib + Linsitinib; first compound 0.005 µM) | relative viability (Afatinib + Linsitinib; first compound 0.01581 µM) | relative viability (Afatinib + Linsitinib; first compound 0.05 µM) | relative viability (Afatinib + Linsitinib; first compound 0.1581 µM) | relative viability (Afatinib + Linsitinib; first compound 0.5 µM) |
| --- | --- | --- | --- | --- | --- | --- | --- | --- | --- | --- | --- | --- | --- | --- | --- | --- | --- | --- | --- | --- |
| NCI-H3122 | 1.02 | 0.976 | 1.05 | 0.91 | 1.03 | 0.103 | 0.0816 | 0.0898 | 0.0996 | 0.0859 | 0.924 | 0.982 | 0.949 | 0.906 | 0.938 | 1.02 | 1.02 | 0.963 | 0.822 | 1.08 |
| PC-3 [JPC-3] | 0.398 | 0.345 | 0.341 | 0.324 | 0.32 | 0.54 | 0.402 | 0.445 | 0.277 | 0.415 | 0.472 | 0.508 | 0.42 | 0.388 | 0.343 | 0.593 | 0.451 | 0.439 | 0.461 | 0.392 |
| PC-14 | 0.377 | 0.334 | 0.372 | 0.334 | 0.349 | 0.152 | 0.115 | 0.19 | 0.126 | 0.144 | 0.45 | 0.149 | 0.184 | 0.179 | 0.183 | 0.271 | 0.255 | 0.176 | 0.237 | 0.23 |
| RERF-LC-KJ | 0.786 | 0.766 | 0.874 |  | 0.751 | 1.19 | 1.11 | 1.19 | 1.1 | 1.08 | 0.844 | 0.86 | 0.82 | 0.8 | 0.794 | 0.888 | 0.9 | 0.76 | 0.656 | 0.716 |
| SK-LU-1 | 0.98 | 0.719 | 0.757 | 0.861 | 0.842 | 0.19 | 0.206 | 0.233 | 0.193 | 0.193 | 0.856 | 0.833 | 0.878 | 0.764 | 0.845 | 1.39 | 1.11 | 1.2 | 1.02 | 1.01 |
| SK-MES-1 | 1.16 | 0.965 | 0.655 | 0.731 | 0.556 | 0.476 | 0.399 | 0.481 | 0.277 | 0.49 | 0.905 | 0.552 | 0.596 | 0.372 | 0.448 | 1 | 0.975 | 0.543 | 0.406 | 0.429 |
| SW 1573 | 0.878 | 1.08 | 1.13 | 0.819 | 0.943 | 0.141 | 0.262 | 0.247 | 0.214 | 0.214 | 0.999 | 0.924 | 0.898 | 0.861 | 0.877 | 0.773 | 0.865 | 0.649 | 0.731 | 0.703 |
| UMC-11 | 0.361 | 0.305 | 0.294 | 0.296 | 0.293 | 1.03 | 1.08 | 1.06 | 1.01 | 0.944 | 0.992 | 1.03 | 1.08 | 1.02 | 0.996 | 0.996 | 0.973 | 1.04 | 0.97 | 1.04 |
